Laboratory results: patent US6376497B1, “Antifungal azole derivatives having a fluorinated vinyl group and process for preparing same” (Korea Research Institute of Chemical Technology, priority 1999, dated 2002)
In brackets after ≈: the same amount, converted by molar mass.

Key:
Test in all cases: In vitro antifungal activity, microbroth dilution MIC
Type in all cases: cell-based
[1] = test system: Torulopsis glabrata B. 16205; settings: 4 to 48 hours; for Minimal inhibitory concentration(MIC), T. glabrata B. 16205: RPMI-1640, 35° C., no growth observed; for Minimal inhibitory concentration (MIC): T. glabrata B. 16205, RPMI-1640, 35° C.
How it was run: (§1)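 Broth microdilution adapted from NCCLS M27, in RPMI-1640 with 0.165 M MOPS, pH 7.0. Yeast or mould inoculum at 2×10^3 CFU/ml was mixed 1:1 with DMSO-derived compound solutions (200 to 0.10 μg/ml before mixing) and incubated at 35 °C for 4 to 48 h. MIC was the concentration showing no growth.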

[2] = test system: Candida parapsitosis A. 7330; settings: 4 to 48 hours; for Minimal inhibitory concentration(MIC), C. parapsitosis A. 7330: RPMI-1640, 35° C., no growth observed; for Minimal inhibitory concentration (MIC): C. parapsitosis A. 7330, RPMI-1640, 35° C.
How it was run: as §1

[3] = test system: Candida krusei K. 11655; settings: 4 to 48 hours; for Minimal inhibitory concentration(MIC), C. krusei K. 11655: RPMI-1640, 35° C., no growth observed; for Minimal inhibitory concentration (MIC): C. krusei K. 11655, RPMI-1640, 35° C.
How it was run: as §1

[4] = test system: Candida tropicalis A. 13803; settings: 4 to 48 hours; for Minimal inhibitory concentration(MIC), C. tropicalis A. 13803: RPMI-1640, 35° C., no growth observed; for Minimal inhibitory concentration (MIC): C. tropicalis A. 13803, RPMI-1640, 35° C.
How it was run: as §1

[5] = test system: Cryptococcus neoformans A. 34144; settings: 4 to 48 hours; for Minimal inhibitory concentration(MIC), Cry. neoformans A. 34144: RPMI-1640, 35° C., no growth observed; for Minimal inhibitory concentration (MIC): Cry. neoformans A. 34144, RPMI-1640, 35° C.
How it was run: as §1

[6] = test system: Cryptococcus neoformans IFM. 40092; settings: 4 to 48 hours; for Minimal inhibitory concentration(MIC), Cry. neoformans IFM. 40092: RPMI-1640, 35° C., no growth observed; for Minimal inhibitory concentration (MIC): Cry. neoformans IFM. 40092, RPMI-1640, 35° C.
How it was run: as §1

[7] = test system: Trichophyton mentagrophytes B. 32663; settings: 4 to 48 hours; for Minimal inhibitory concentration(MIC), T. mentagrophytes B. 32663: RPMI-1640, 35° C., no growth observed; for Minimal inhibitory concentration (MIC): T. mentagrophytes B. 32663, RPMI-1640, 35° C.
How it was run: as §1

[8] = test system: Cryptococcus neoformans B. 42419; settings: 4 to 48 hours; for Minimal inhibitory concentration(MIC), Cry. neoformans B. 42419: RPMI-1640, 35° C., no growth observed; for Minimal inhibitory concentration (MIC): Cry. neoformans B. 42419, RPMI-1640, 35° C.
How it was run: as §1

[9] = test system: Trichophyton mentagrophytes A. 9129; settings: 4 to 48 hours; for Minimal inhibitory concentration(MIC), T. mentagrophytes A. 9129: RPMI-1640, 35° C., no growth observed; for Minimal inhibitory concentration (MIC): T. mentagrophytes A. 9129, RPMI-1640, 35° C.
How it was run: as §1

[10] = test system: Candida albicans C1-2; settings: 4 to 48 hours; for Minimal inhibitory concentration(MIC), C. albicans C1-2: RPMI-1640, 35° C., no growth observed; for Minimal inhibitory concentration (MIC): C. albicans C1-2, RPMI-1640, 35° C.
How it was run: as §1

[11] = test system: Candida albicans A. 10231; settings: 4 to 48 hours; for Minimal inhibitory concentration(MIC), C. albicans A. 10231: RPMI-1640, 35° C., no growth observed; for Minimal inhibitory concentration (MIC): C. albicans A. 10231, RPMI-1640, 35° C.
How it was run: as §1

[12] = test system: Candida pseudotropicalis K. 11658; settings: 4 to 48 hours; for Minimal inhibitory concentration(MIC), C. pseudotropicalis K. 11658: RPMI-1640, 35° C., no growth observed; for Minimal inhibitory concentration (MIC): C. pseudotropicalis K. 11658, RPMI-1640, 35° C.
How it was run: as §1

[13] = test system: Aspergillus niger A. 16404; settings: 4 to 48 hours; for Minimal inhibitory concentration(MIC), A. niger A. 16404: RPMI-1640, 35° C., no growth observed; for Minimal inhibitory concentration (MIC): A. niger A. 16404, RPMI-1640, 35° C.
How it was run: as §1

[14] = test system: Candida albicans IFO. 1385; settings: 4 to 48 hours; for Minimal inhibitory concentration(MIC), C. albicans IFO. 1385: RPMI-1640, 35° C., no growth observed; for Minimal inhibitory concentration (MIC): C. albicans IFO. 1385, RPMI-1640, 35° C.
How it was run: as §1

[15] = test system: Aspergillus furnigatus B. 19119; settings: 4 to 48 hours; for Minimal inhibitory concentration(MIC), A furnigatus B. 19119: RPMI-1640, 35° C., no growth observed; for Minimal inhibitory concentration (MIC): A furnigatus B. 19119, RPMI-1640, 35° C.
How it was run: as §1

SMILES	Minimal inhibitory concentration(MIC), T. glabrata B. 16205 [1]	Minimal inhibitory concentration(MIC), C. parapsitosis A. 7330 [2]	Minimal inhibitory concentration(MIC), C. krusei K. 11655 [3]	Minimal inhibitory concentration(MIC), C. tropicalis A. 13803 [4]	Minimal inhibitory concentration(MIC), Cry. neoformans A. 34144 [5]	Minimal inhibitory concentration (MIC) [1]	Minimal inhibitory concentration (MIC) [2]	Minimal inhibitory concentration (MIC) [3]	Minimal inhibitory concentration (MIC) [4]	Minimal inhibitory concentration (MIC) [5]	Minimal inhibitory concentration (MIC) [6]	Minimal inhibitory concentration (MIC) [7]	Minimal inhibitory concentration (MIC) [8]	Minimal inhibitory concentration (MIC) [9]	Minimal inhibitory concentration (MIC) [10]	Minimal inhibitory concentration (MIC) [11]	Minimal inhibitory concentration (MIC) [12]	Minimal inhibitory concentration (MIC) [13]	Minimal inhibitory concentration (MIC) [14]	Minimal inhibitory concentration (MIC) [15]	further results
Cc1cc(C)cc(C(=C(F)OCC2COC(Cn3cncn3)(c3ccc(Cl)cc3Cl)O2)C(F)(F)F)c1 (mixture of isomers) [Ex. 83]	>100 µg/mL	>100 µg/mL	>100 µg/mL	>100 µg/mL	>100 µg/mL																Minimal inhibitory concentration(MIC), Cry. neoformans IFM. 40092 [6]: 1.56 µg/mL; Minimal inhibitory concentration(MIC), T. mentagrophytes B. 32663 [7]: >100 µg/mL; Minimal inhibitory concentration(MIC), Cry. neoformans B. 42419 [8]: >100 µg/mL; Minimal inhibitory concentration(MIC), T. mentagrophytes A. 9129 [9]: >100 µg/mL; Minimal inhibitory concentration(MIC), C. albicans C1-2 [10]: >100 µg/mL; Minimal inhibitory concentration(MIC), C. albicans A. 10231 [11]: >100 µg/mL; Minimal inhibitory concentration(MIC), C. pseudotropicalis K. 11658 [12]: >100 µg/mL; Minimal inhibitory concentration(MIC), A. niger A. 16404 [13]: >100 µg/mL; Minimal inhibitory concentration(MIC), C. albicans IFO. 1385 [14]: >100 µg/mL; Minimal inhibitory concentration(MIC), A furnigatus B. 19119 [15]: >100 µg/mL
FC(OCC1COC(Cn2ccnc2)(c2ccc(F)cc2F)O1)=C(c1cccc(F)c1)C(F)(F)F (mixture of isomers) [Ex. 65]						6.25 µg/mL	>100 µg/mL	100 µg/mL	50.0 µg/mL	1.56 µg/mL	≦0.10 μg/ml	1.53 µg/mL	1.56 µg/mL	3.13 µg/mL	12.5 µg/mL	12.5 µg/mL	25.0 µg/mL	12.5 µg/mL	0.78 µg/mL	3.13 µg/mL	
FC(Oc1ccc(OCC2COC(Cn3ccnc3)(c3ccc(Cl)cc3Cl)O2)cc1)=C(c1ccccc1)C(F)(F)F (mixture of isomers) [Ex. 93]	100 µg/mL	>100 µg/mL	>100 µg/mL	>100 µg/mL	12.5 µg/mL																Minimal inhibitory concentration(MIC), Cry. neoformans IFM. 40092 [6]: 1.56 µg/mL; Minimal inhibitory concentration(MIC), T. mentagrophytes B. 32663 [7]: 25.0 µg/mL; Minimal inhibitory concentration(MIC), Cry. neoformans B. 42419 [8]: >100 µg/mL; Minimal inhibitory concentration(MIC), T. mentagrophytes A. 9129 [9]: 25.0 µg/mL; Minimal inhibitory concentration(MIC), C. albicans C1-2 [10]: >100 µg/mL; Minimal inhibitory concentration(MIC), C. albicans A. 10231 [11]: 100 µg/mL; Minimal inhibitory concentration(MIC), C. pseudotropicalis K. 11658 [12]: >100 µg/mL; Minimal inhibitory concentration(MIC), A. niger A. 16404 [13]: >100 µg/mL; Minimal inhibitory concentration(MIC), C. albicans IFO. 1385 [14]: 6.25 µg/mL; Minimal inhibitory concentration(MIC), A furnigatus B. 19119 [15]: >100 µg/mL
FC(OCC1COC(Cn2ccnc2)(c2ccc(F)cc2F)O1)=C(c1ccc2c(c1)OCO2)C(F)(F)F (mixture of isomers) [Ex. 62]						3.13 µg/mL	>100 µg/mL	100 µg/mL	100 µg/mL	0.78 µg/mL	0.20 µg/mL	3.13 µg/mL	0.78 µg/mL	12.5 µg/mL	12.5 µg/mL	12.5 µg/mL	50.0 µg/mL	>100 µg/mL	0.78 µg/mL	25.0 µg/mL	
Cc1cc(C=C(F)OCC2COC(Cn3ccnc3)(c3ccc(F)cc3F)O2)ccc1Cl (mixture of isomers) [Ex. 50]						6.25 µg/mL	12.5 µg/mL	25.0 µg/mL	25.0 µg/mL	1.56 µg/mL	0.20 µg/mL	0.78 µg/mL	1.56 µg/mL	3.13 µg/mL	12.5 µg/mL	12.5 µg/mL	12.5 µg/mL	25.0 µg/mL	0.39 µg/mL	6.25 µg/mL	
CCc1ccc(C(=C(F)OCC2COC(Cn3ccnc3)(c3ccc(Cl)cc3Cl)O2)C(F)(F)F)cc1 (stereo not drawn) [Ex. 22]						25.0 µg/mL (≈ 45.8 µM)	>100 µg/mL	100 µg/mL (≈ 183 µM)	25.0 µg/mL (≈ 45.8 µM)	1.56 µg/mL (≈ 2.86 µM)	0.78 µg/mL (≈ 1.43 µM)	12.5 µg/mL (≈ 22.9 µM)	1.56 µg/mL (≈ 2.86 µM)	25.0 µg/mL (≈ 45.8 µM)	12.5 µg/mL (≈ 22.9 µM)	6.25 µg/mL (≈ 11.5 µM)	100 µg/mL (≈ 183 µM)	100 µg/mL (≈ 183 µM)	0.78 µg/mL (≈ 1.43 µM)	50.0 µg/mL (≈ 91.7 µM)	
FC(Oc1ccc(OCC2COC(Cn3ccnc3)(c3ccc(Cl)cc3Cl)O2)cc1)=C(c1cc(Cl)cc(Cl)c1)C(F)(F)F (mixture of isomers) [Ex. 104]	100 µg/mL	>100 µg/mL	>100 µg/mL	>100 µg/mL	3.13 µg/mL																Minimal inhibitory concentration(MIC), Cry. neoformans IFM. 40092 [6]: 0.78 µg/mL; Minimal inhibitory concentration(MIC), T. mentagrophytes B. 32663 [7]: 25.0 µg/mL; Minimal inhibitory concentration(MIC), Cry. neoformans B. 42419 [8]: 3.13 µg/mL; Minimal inhibitory concentration(MIC), T. mentagrophytes A. 9129 [9]: 50.0 µg/mL; Minimal inhibitory concentration(MIC), C. albicans C1-2 [10]: >100 µg/mL; Minimal inhibitory concentration(MIC), C. albicans A. 10231 [11]: 100 µg/mL; Minimal inhibitory concentration(MIC), C. pseudotropicalis K. 11658 [12]: >100 µg/mL; Minimal inhibitory concentration(MIC), A. niger A. 16404 [13]: >100 µg/mL; Minimal inhibitory concentration(MIC), C. albicans IFO. 1385 [14]: 3.13 µg/mL; Minimal inhibitory concentration(MIC), A furnigatus B. 19119 [15]: >100 µg/mL
